Measurements: patent US10668032B2 (SyneuRx International (Taiwan) Corp., priority 2016, dated 2020)

Experiments:
primary cortical cells = assay: Oxygen-glucose deprivation (OGD) of primary cortical culture, MTT assay; assay type: cell-based, rat
Text: The oxygen-glucose deprivation (OGD) is a common and well-validated cell model used for brain injuries like stroke-related studies. […] To induce the OGD model, the Neurobasal medium supplemented with B27 (GIBCO/Life Technologies of Thermo Fisher Scientific Corporation) was removed from the cultures, and then rinsed with Neurobasal-A Medium (no D-glucose and sodium pyruvate [GIBCO/Life Technologies of Thermo Fisher Scientific Corporation]). The cultured cells were maintained in a humidified incubator at 37° C. with 5% CO2 for 1 h to consume the resting glucose and pyruvate. The cultures were then subjected to an anaerobic environment of 95% N2-5% CO2 for 4 hours. Oxygen concentration was monitored by an oxygen analyzer (Proox-110, Demott St, Lacona, N.Y., USA), as maintained at approximately 1.0% throughout the experiment.

[1] = system: MPTP-induced C57BL/6J mice; assay: Pole test in MPTP-induced mice; assay type: in vivo, mouse; conditions: 256 mg/kg body weight/day after 5 weeks of MPTP 30 mg/kg/day i.p.
Method: Animals were housed and kept in the same condition as previous described. Male C57BL/6J mice (age: 12 weeks) were randomly assigned to 2 groups—vehicle control and MPTP-induced groups. The mice of MPTP-induced group were intraperitoneally injected with MPTP (30 mg/kg body weight/day) for five weeks, while those in the vehicle control group received injections of the same volume of saline. After 5 weeks of MPTP exposure, pole test was performed to elucidate the effect of MPTP-induced disability.
Pole test was used to measure the degree of bradykinesia, a typical symptom of parkinsonism. The animals were positioned head upward near the top of a rough-surfaced pole (1 cm in diameter and 60 cm in height). The time taken until they turned downward (Tturn) and the total time taken to climb down to the floor (TLA), were recorded. When the mouse was not able to turn downward, Tturn was taken as 60 seconds (default value).

[2] = Plasma pharmacokinetics of lithium after oral gavage (ICP-MS)
Method: Male Sprague-Dawley rats weighed between 240-260 g were randomly assigned to two groups. […] These two regimens would provide the same molarity of lithium and benzoate. The chemicals were dissolved in PBS, and then administrated by oral gavage. All rats were fasted overnight with free access to water before experiments. After single dose administration of drugs, the blood samples were then collected at the time point 0, 5, 15, 30, 60, 90, 120, 240, 360, 720, and 1440 min.
Blood samples were collected in tubes coated with sodium heparin from jugular vein catheterized rats. Then, the blood samples were kept on ice and centrifuged at 2,500×g for 15 min at 4° C. The supernatant was collected and then kept frozen at −80° C. until further processing.

[3] = system: cortical cells with Aβ25-35 exposure; assay: Aβ25-35 cytotoxicity with or without NMDA receptor antagonist MK801, cell survival
Method: Aβ25-35 (Cat. No. A4559, Sigma) was dissolved in autoclaved ddH2O to make a stock solution of 2 mM, dispensed into aliquots, and immediately stored at −80° C. until use.
In this study, the application of MK801 could reveal whether the neuroprotective effects of drugs were mediated by NMDA receptor.

**Q.** Which “cell survival under oxygen-glucose deprivation” value (primary cortical cells; overall treatment 53 hours (pre-treatment 24 h, habituation 1 h, OGD 4 h, reperfusion 24 h), 0.3, 1, 3, 5 mM) does the source give for `O=C([O-])c1ccccc1.[Li+]` [lithium benzoate] here?
**A.** significantly protected

**Q.** And the “cell survival under oxygen-glucose deprivation” value (primary cortical cells; post-treatment for 48 hours reperfusion)?
**A.** cell protection effect at all dose levels

**Q.** And the “total time for turning down (TLA), pole test” value [1]?
**A.** significantly reduced

**Q.** What about the “turning time (Tturn), pole test” value [1] of the same compound?
**A.** significantly reduced

**Q.** What about the Tmax of lithium ([2]; rat, single oral gavage, NaBen 287.9 mg/kg + Li2CO3 74.2 mg/kg or LiBen 255.3 mg/kg) of the same compound?
**A.** 132.5 min

**Q.** And the Cmax ([2]; read-out: Cmax of lithium, rat, single oral gavage, NaBen 287.9 mg/kg + Li2CO3 74.2 mg/kg or LiBen 255.3 mg/kg)?
**A.** 1720 µM

**Q.** What about the “protective effect with or without MK801 treatment” value ([3]; 0.5 mM, MK801 10 μM vs 0 μM) of the same compound?
**A.** No obvious differences

**Q.** And the “cell survival with Aβ25-35 exposure” value ([3]; post-treatment 0.5 mM, MK801 0 μM)?
**A.** elevate the cell survival
